# Results published in the supplement of paper PMC10331698.
# ± gives the standard deviation of the averaged measurements.
# Key:
# Experiment in all cases: level (log10 ratio to DMSO vehicle control); higher = higher biomarker level / cell amount than vehicle control
# [1] = compound: COC(=O)C(F)(F)C(F)(F)OC(F)(C(F)(F)F)C(F)(F)OC(F)=C(F)F [Methyl perfluoro(3-(1-ethenyloxypropan-2-yloxy)propanoate)]; settings: in DMSO
# Description: (§1)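 BioMAP Diversity Plus panel of 12 human primary cell co-culture systems (3C, 4H, LPS, SAg, BT, BF4T, BE3C, CASM3C, HDF3CGF, KF3CT, MyoF, Mphg). Compounds were added 1 h before stimulation and left for 24 h (MyoF 48 h; BT 72 h for soluble read-outs or 6 d for IgG). Biomarkers were read by ELISA, cytotoxicity by SRB, PBMC viability and proliferation by Alamar Blue. Each well value was divided by the mean of 8 DMSO control wells on the same plate and log10 transformed; duplicate blinded samples were tested at 4 concentrations.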
# [2] = compound: C=CC(=O)OCC(F)(F)C(F)(F)C(F)(F)COC(=O)C=C [1H,1H,5H,5H-Perfluoro-1,5-pentanediol diacrylate]; settings: 6700 nM; in DMSO
# Description: as §1
# Nonafluoropentanamide = compound: NC(=O)C(F)(F)C(F)(F)C(F)(F)C(F)(F)F [Nonafluoropentanamide]; settings: in DMSO
# Description: as §1
# Hexafluoroamylene glycol = compound: OCC(F)(F)C(F)(F)C(F)(F)CO [Hexafluoroamylene glycol]; settings: in DMSO
# Description: as §1
# [3] = compound: O=C(O)C=CC(F)(C(F)(F)F)C(F)(F)F [3-(Perfluoroisopropyl)-2-propenoic acid]; settings: in DMSO
# Description: as §1
# [4] = compound: FC(F)(F)C(F)(F)C(F)(F)C(F)(F)C(F)(F)C(F)(F)C(F)(F)I [1-Iodopentadecafluoroheptane]; settings: in DMSO
# Description: as §1
# [5] = compound: O=S(=O)(O)CCC(F)(F)C(F)(F)C(F)(F)C(F)(F)C(F)(F)C(F)(F)F [6:2 Fluorotelomer sulfonic acid]; settings: in DMSO
# Description: as §1
# [6] = compound: NC(=O)C(F)(F)C(F)(F)C(F)(F)C(F)F; settings: in DMSO
# Description: as §1
Test System,level (log10) ([1]; 6700 nM),level (log10) ([1]; 20000 nM),level (log10) [2],level (log10) (Nonafluoropentanamide; 6700 nM),level (log10) (Nonafluoropentanamide; 20000 nM),level (log10) (Nonafluoropentanamide; 60000 nM),level (log10) (Hexafluoroamylene glycol; 6700 nM),level (log10) (Hexafluoroamylene glycol; 20000 nM),level (log10) (Hexafluoroamylene glycol; 60000 nM),level (log10) ([3]; 6700 nM),level (log10) ([3]; 20000 nM),level (log10) ([3]; 60000 nM),level (log10) ([4]; 6700 nM),level (log10) ([4]; 20000 nM),level (log10) ([5]; 6700 nM),level (log10) ([5]; 20000 nM),level (log10) ([5]; 60000 nM),level (log10) ([6]; 6700 nM),level (log10) ([6]; 20000 nM),level (log10) ([6]; 60000 nM)
3C:CXCL9/MIG,-0.0025 ± 0.012,-0.0005 ± 0.00071,-0.017 ± 0.0085,-0.0005 ± 0.0021,-0.0005 ± 0.021,0.0065 ± 0.012,-0.006 ± 0.0071,-0.01 ± 0.0057,0.007,0.004 ± 0.0071,-0.0105 ± 0.0064,0.0045 ± 0.016,0.001 ± 0.0099,-0.002 ± 0.0042,-0.0065 ± 0.0021,-0.009 ± 0.017,-0.006 ± 0.0042,-0.0095 ± 0.011,-0.012 ± 0.0014,-0.0045 ± 0.0021
HDF3CGF:CD106/VCAM-1,-0.133 ± 0.0057,-0.313 ± 0.0099,-0.512 ± 0.033,0.008 ± 0.028,0.0185 ± 0.03,-0.0085 ± 0.037,0.042 ± 0.083,0.0495 ± 0.08,0.041 ± 0.055,-0.0265 ± 0.015,-0.019 ± 0.02,-0.025 ± 0.035,-0.0165 ± 0.021,-0.046 ± 0.041,0.034 ± 0.11,0.034 ± 0.093,0.0135 ± 0.064,-0.0285 ± 0.019,-0.014 ± 0.024,-0.04 ± 0.078
HDF3CGF:CXCL8/IL-8,0.0045 ± 0.011,0.0245 ± 0.0064,-1.07 ± 0.012,-0.0045 ± 0.0035,-0.0005 ± 0.0021,0.0015 ± 0.005,-0.0325 ± 0.04,-0.011 ± 0.0028,0.009 ± 0.024,-0.008 ± 0.0042,0.004 ± 0.011,0.0065 ± 0.013,-0.0055 ± 0.00071,-0.001,-0.01 ± 0.014,-0.007 ± 0.013,0.008 ± 0.037,-0.0085 ± 0.0035,0.0015 ± 0.0078,0.0045 ± 0.018
lMphg:CCL2/MCP-1,-0.0045 ± 0.0064,0.0335 ± 0.044,-0.048 ± 0.0085,0.0005 ± 0.0021,0.0025 ± 0.049,0.0225 ± 0.037,-0.001 ± 0.03,-0.0115 ± 0.0064,-0.007 ± 0.023,-0.023 ± 0.014,-0.0275 ± 0.011,0.006 ± 0.03,0.009 ± 0.0085,0.018 ± 0.02,-0.0195 ± 0.012,-0.005 ± 0.0099,0.027 ± 0.025,0.004,-0.0065 ± 0.012,0.0255 ± 0.018
HDF3CGF:TIMP-2,-0.043 ± 0.0028,-0.051 ± 0.028,0.0805 ± 0.016,-0.0315 ± 0.016,0.0165 ± 0.06,0.0025 ± 0.091,-0.0205 ± 0.029,-0.024 ± 0.014,0.0025 ± 0.032,-0.0105 ± 0.0021,-0.0045 ± 0.011,-0.0115 ± 0.012,0.015 ± 0.0057,0.0035 ± 0.0035,-0.021 ± 0.0099,-0.0205 ± 0.032,0.0245 ± 0.029,0.015 ± 0.025,0.027 ± 0.033,0.003 ± 0.0028
KF3CT:CXCL8/IL-8,0.001 ± 0.025,0.034 ± 0.014,-0.041 ± 0.027,-0.0465 ± 0.036,-0.03 ± 0.014,-0.0165 ± 0.03,0.001 ± 0.044,-0.0015 ± 0.028,0.004 ± 0.02,0.001 ± 0.013,0.0085 ± 0.028,0.018 ± 0.0014,0.0135 ± 0.0021,0.014 ± 0.0028,-0.0005 ± 0.035,-0.001 ± 0.027,-0.0455 ± 0.022,-0.009 ± 0.0028,0.011 ± 0.011,0.019 ± 0.011
HDF3CGF:CXCL10/IP-10,-0.018 ± 0.062,-0.203 ± 0.03,-0.821 ± 0.0057,-0.012 ± 0.0014,-0.0055 ± 0.00071,-0.004 ± 0.0014,-0.009,-0.0135 ± 0.029,-0.028 ± 0.051,-0.007 ± 0.034,0.0025 ± 0.035,-0.001 ± 0.027,0.0025 ± 0.0021,-0.026 ± 0.0071,-0.0075 ± 0.018,-0.046 ± 0.021,-0.0325 ± 0.042,-0.001 ± 0.0014,-0.0065 ± 0.0021,0.002 ± 0.011
KF3CT:IL-1alpha,0.054 ± 0.02,0.071 ± 0.014,-0.125 ± 0.02,0.012 ± 0.0085,0.011,0.0095 ± 0.0064,-0.014 ± 0.031,-0.018 ± 0.0099,-0.017 ± 0.038,-0.0025 ± 0.0064,0.0025 ± 0.0092,0.001 ± 0.017,-0.006 ± 0.0042,-0.004 ± 0.0071,0.0115 ± 0.016,0.0005 ± 0.016,-0.0255 ± 0.039,-0.0165 ± 0.011,-0.0265 ± 0.005,0.008 ± 0.045
lMphg:M-CSF,-0.0325 ± 0.042,-0.0335 ± 0.035,-0.0245 ± 0.0035,0.004 ± 0.0071,0.004 ± 0.017,0.018 ± 0.0014,-0.008 ± 0.0057,-0.009 ± 0.0071,0.006 ± 0.0014,-0.0105 ± 0.0064,-0.021 ± 0.014,-0.015 ± 0.025,-0.0015 ± 0.042,0.015 ± 0.0014,0.0045 ± 0.0078,-0.023 ± 0.028,-0.0145 ± 0.0064,-0.0135 ± 0.0092,-0.018 ± 0.025,-0.0175 ± 0.015
CASM3C:IL-6,-0.018 ± 0.02,-0.0065 ± 0.025,-0.0735 ± 0.00071,0.0185 ± 0.06,-0.0285 ± 0.021,0.015 ± 0.014,-0.0015 ± 0.015,-0.0155 ± 0.016,0.028 ± 0.028,-0.035 ± 0.011,-0.0525 ± 0.00071,0.001 ± 0.092,-0.0425 ± 0.026,-0.0035 ± 0.053,-0.003 ± 0.011,-0.014 ± 0.0014,0.006 ± 0.017,-0.0315 ± 0.0064,-0.0165 ± 0.012,0.017 ± 0.05
3C:CD106/VCAM-1,-0.016 ± 0.0057,-0.0235 ± 0.015,-0.179 ± 0.025,-0.024 ± 0.028,-0.0135 ± 0.039,-0.016 ± 0.0071,-0.0205 ± 0.013,-0.031 ± 0.011,-0.0065 ± 0.0092,-0.002 ± 0.03,-0.039 ± 0.037,-0.0205 ± 0.00071,-0.0165 ± 0.016,-0.005 ± 0.011,-0.019 ± 0.0071,-0.035,-0.014 ± 0.013,-0.001 ± 0.024,0.0135 ± 0.0021,0.007 ± 0.016
BE3C:MMP-1,0.102 ± 0.025,0.176 ± 0.0092,0.0115 ± 0.0078,0.003 ± 0.0071,0.052 ± 0.075,0.0795 ± 0.023,-0.009 ± 0.017,-0.03 ± 0.0057,0.015 ± 0.025,0.0495 ± 0.06,0.034 ± 0.061,0.085 ± 0.0028,-0.0205 ± 0.0078,-0.011,-0.013 ± 0.017,-0.0105 ± 0.018,0.078 ± 0.054,0.003 ± 0.054,-0.001 ± 0.0014,0.024 ± 0.0057
CASM3C:CXCL9/MIG,-0.0025 ± 0.0078,-0.007 ± 0.013,-0.229 ± 0.011,-0.011 ± 0.013,-0.029 ± 0.051,-0.0075 ± 0.074,-0.03 ± 0.011,-0.0225 ± 0.016,0.009 ± 0.024,-0.004 ± 0.0099,0.002 ± 0.0057,0.027 ± 0.023,-0.0165 ± 0.025,0.018 ± 0.018,-0.0445 ± 0.0078,-0.0315 ± 0.0035,-0.015 ± 0.045,-0.0075 ± 0.021,-0.0055 ± 0.0035,0.0005 ± 0.0078
HDF3CGF:CXCL11/I-TAC,-0.0285 ± 0.018,-0.272 ± 0.0078,-0.41 ± 0.045,-0.0095 ± 0.021,0.009 ± 0.024,-0.0155 ± 0.011,0.001 ± 0.04,-0.015 ± 0.088,-0.044 ± 0.1,-0.004 ± 0.0014,0.015 ± 0.025,0.002 ± 0.021,-0.019 ± 0.0057,-0.0405 ± 0.0092,-0.0445 ± 0.1,-0.0605 ± 0.088,-0.0885 ± 0.091,-0.0035 ± 0.016,-0.002 ± 0.013,-0.002 ± 0.027
